Reference: ChEMBL document CHEMBL1139236, “Introduction of non-natural amino acid residues into the substrate-specific P1 position of trypsin inhibitor SFTI-1 yields potent chymotrypsin and cathepsin G inhibitors” (Bioorg Med Chem, 2009)
Bridge positions count the residues as written; N and C are the ends. Square brackets hold non-standard residues; d marks the D form. Peptide text beside a SMILES is read from it. Phe(4-NO2) = N[C@@H](Cc1ccc([N+](=O)[O-])cc1)C(=O)O; Phe(4-guanidino) = N=C(N)Nc1ccc(C[C@H](N)C(=O)O)cc1; Phe(4-NH2) = Nc1ccc(C[C@H](N)C(=O)O)cc1; Phe(4-F) = N[C@@H](Cc1ccc(F)cc1)C(=O)O; Phe(4-Me) = Cc1ccc(C[C@H](N)C(=O)O)cc1; 4Pal = N[C@@H](Cc1ccncc1)C(=O)O

Legend:
[1] = molecular target: Chymotrypsinogen A (Bos taurus) (UniProt P00766); assay: Inhibition of bovine alpha-chymotrypsin assessed as association equilibrium constant relative to [Phe5]SFTI-1
[2] = molecular target: T1, Cathepsin G (Homo sapiens) (UniProt P08311); assay: Inhibition of cathepsin G assessed as association equilibrium constant
T1 sequence (whole entry): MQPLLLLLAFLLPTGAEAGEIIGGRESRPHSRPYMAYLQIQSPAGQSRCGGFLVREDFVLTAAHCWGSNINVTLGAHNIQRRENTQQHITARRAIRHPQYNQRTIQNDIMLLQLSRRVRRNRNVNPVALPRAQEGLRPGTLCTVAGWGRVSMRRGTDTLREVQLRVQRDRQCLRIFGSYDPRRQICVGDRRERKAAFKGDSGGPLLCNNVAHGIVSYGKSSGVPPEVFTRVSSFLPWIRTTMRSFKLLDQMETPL

[3] = molecular target: Chymotrypsinogen A (Bos taurus) (UniProt P00766); assay: Inhibition of bovine alpha-chymotrypsin assessed as association equilibrium constant
[4] = molecular target: T1, Cathepsin G (Homo sapiens); assay: Inhibition of cathepsin G assessed as association equilibrium constant relative to [Phe5]SFTI-1
Serum = assay: Stability in human serum at 2 mg/mL up to 24 hrs; assay type: ADME, cell-free
Cathepsin G = molecular target: T2, Cathepsin G (Homo sapiens, UniProt P08311); assay: Inhibition of cathepsin G
T2 sequence (P08311 whole entry): T1 sequence (whole entry)

| SMILES | Ratio [1] | Ka [2] | Ka [3] | Ratio [4] | Stability (Serum) | Ki (Cathepsin G) [nM] |
| --- | --- | --- | --- | --- | --- | --- |
| CC[C@H](C)[C@@H]1NC(=O)[C@@H]2CCCN2C(=O)[C@@H]2CCCN2C(=O)[C@H]([C@@H](C)CC)NC(=O)[C@H](CO)NC(=O)[C@H](Cc2ccncc2)NC(=O)[C@H]([C@@H](C)O)NC(=O)[C@@H](NC(=O)[C@H](CCCNC(=N)N)NC(=O)CN)CSSC[C@@H](C(=O)N[C@@H](Cc2ccccc2)C(=O)N2CCC[C@H]2C(=O)N[C@@H](CC(=O)O)C(=O)O)NC1=O (H-GRCT[4Pal]SIPPICFPD-OH; disulfide 3-11) | 5.5 | < 1 ×10⁵ /M | 1.1 ×10¹⁰ /M | – | – | – |
| CC[C@H](C)[C@@H]1NC(=O)[C@@H]2CCCN2C(=O)[C@@H]2CCCN2C(=O)[C@H]([C@@H](C)CC)NC(=O)[C@H](CO)NC(=O)[C@H](Cc2ccc(C)cc2)NC(=O)[C@H]([C@@H](C)O)NC(=O)[C@@H](NC(=O)[C@H](CCCNC(=N)N)NC(=O)CN)CSSC[C@@H](C(=O)N[C@@H](Cc2ccccc2)C(=O)N2CCC[C@H]2C(=O)N[C@@H](CC(=O)O)C(=O)O)NC1=O (H-GRCT[Phe(4-Me)]SIPPICFPD-OH; disulfide 3-11) | 12.5 | 2.8 ×10⁶ /M | 2.5 ×10¹⁰ /M | 0.76 | – | – |
| CC[C@H](C)[C@@H]1NC(=O)[C@@H]2CCCN2C(=O)[C@@H]2CCCN2C(=O)[C@H]([C@@H](C)CC)NC(=O)[C@H](CO)NC(=O)[C@H](Cc2ccc(N)cc2)NC(=O)[C@H]([C@@H](C)O)NC(=O)[C@@H](NC(=O)[C@H](CCCNC(=N)N)NC(=O)CN)CSSC[C@@H](C(=O)N[C@@H](Cc2ccccc2)C(=O)N2CCC[C@H]2C(=O)N[C@@H](CC(=O)O)C(=O)O)NC1=O (H-GRCT[Phe(4-NH2)]SIPPICFPD-OH; disulfide 3-11) | 9.5 | 3.6 ×10⁶ /M | 1.9 ×10¹⁰ /M | 0.97 | – | – |
| CC[C@H](C)[C@@H]1NC(=O)[C@@H]2CCCN2C(=O)[C@@H]2CCCN2C(=O)[C@H]([C@@H](C)CC)NC(=O)[C@H](CO)NC(=O)[C@H](CCCCN)NC(=O)[C@H]([C@@H](C)O)NC(=O)[C@@H](NC(=O)[C@H](CCCNC(=N)N)NC(=O)CN)CSSC[C@@H](C(=O)N[C@@H](Cc2ccccc2)C(=O)N2CCC[C@H]2C(=O)N[C@@H](CC(=O)O)C(=O)O)NC1=O | – | – | 5 ×10⁶ /M | – | – | – |
| CC[C@H](C)[C@@H]1NC(=O)[C@@H]2CCCN2C(=O)[C@@H]2CCCN2C(=O)[C@H]([C@@H](C)CC)NC(=O)[C@H](CO)NC(=O)[C@H](Cc2ccc(NC(=N)N)cc2)NC(=O)[C@H]([C@@H](C)O)NC(=O)[C@@H](NC(=O)[C@H](CCCNC(=N)N)NC(=O)CN)CSSC[C@@H](C(=O)N[C@@H](Cc2ccccc2)C(=O)N2CCC[C@H]2C(=O)N[C@@H](CC(=O)O)C(=O)O)NC1=O (H-GRCT[Phe(4-guanidino)]SIPPICFPD-OH; disulfide 3-11) | 0.09 | 8.1 ×10⁷ /M | 1.8 ×10⁸ /M | 2.19 | Stable | – |
| CC[C@H](C)[C@@H]1NC(=O)[C@@H]2CCCN2C(=O)[C@@H]2CCCN2C(=O)[C@H]([C@@H](C)CC)NC(=O)[C@H](CO)NC(=O)[C@H](Cc2ccc(F)cc2)NC(=O)[C@H]([C@@H](C)O)NC(=O)[C@@H](NC(=O)[C@H](CCCNC(=N)N)NC(=O)CN)CSSC[C@@H](C(=O)N[C@@H](Cc2ccccc2)C(=O)N2CCC[C@H]2C(=O)N[C@@H](CC(=O)O)C(=O)O)NC1=O (H-GRCT[Phe(4-F)]SIPPICFPD-OH; disulfide 3-11) | 15 | 3.8 ×10⁶ /M | 3 ×10¹⁰ /M | 1.02 | – | – |
| CC[C@H](C)[C@@H]1NC(=O)[C@@H]2CCCN2C(=O)[C@@H]2CCCN2C(=O)[C@H]([C@@H](C)CC)NC(=O)[C@H](CO)NC(=O)[C@H](Cc2ccccc2)NC(=O)[C@H]([C@@H](C)O)NC(=O)[C@@H](NC(=O)[C@H](CCCNC(=N)N)NC(=O)CN)CSSC[C@@H](C(=O)N[C@@H](Cc2ccccc2)C(=O)N2CCC[C@H]2C(=O)N[C@@H](CC(=O)O)C(=O)O)NC1=O (H-GRCTFSIPPICFPD-OH; disulfide 3-11) | – | 3.7 ×10⁶ /M | 2 ×10⁹ /M | – | – | – |
| CC[C@H](C)[C@@H]1NC(=O)[C@@H]2CCCN2C(=O)[C@@H]2CCCN2C(=O)[C@H]([C@@H](C)CC)NC(=O)[C@H](CO)NC(=O)[C@H](CCCCN)NC(=O)[C@H]([C@@H](C)O)NC(=O)[C@@H]2CSSC[C@H](NC1=O)C(=O)N[C@@H](Cc1ccccc1)C(=O)N1CCC[C@H]1C(=O)N[C@@H](CC(=O)O)C(=O)NCC(=O)N[C@@H](CCCNC(=N)N)C(=O)N2 | – | 5.7 ×10⁶ /M | 5.2 ×10⁶ /M | 1.54 | – | 0.15 |
| CC[C@H](C)[C@@H]1NC(=O)[C@@H]2CCCN2C(=O)[C@@H]2CCCN2C(=O)[C@H]([C@@H](C)CC)NC(=O)[C@H](CO)NC(=O)[C@H](Cc2ccc(O)cc2)NC(=O)[C@H]([C@@H](C)O)NC(=O)[C@@H](NC(=O)[C@H](CCCNC(=N)N)NC(=O)CN)CSSC[C@@H](C(=O)N[C@@H](Cc2ccccc2)C(=O)N2CCC[C@H]2C(=O)N[C@@H](CC(=O)O)C(=O)O)NC1=O (H-GRCTYSIPPICFPD-OH; disulfide 3-11) | 9.5 | < 1 ×10⁵ /M | 1.9 ×10¹⁰ /M | – | – | – |
| CC[C@H](C)[C@@H]1NC(=O)[C@@H]2CCCN2C(=O)[C@@H]2CCCN2C(=O)[C@H]([C@@H](C)CC)NC(=O)[C@H](CO)NC(=O)[C@H](Cc2ccc([N+](=O)[O-])cc2)NC(=O)[C@H]([C@@H](C)O)NC(=O)[C@@H](NC(=O)[C@H](CCCNC(=N)N)NC(=O)CN)CSSC[C@@H](C(=O)N[C@@H](Cc2ccccc2)C(=O)N2CCC[C@H]2C(=O)N[C@@H](CC(=O)O)C(=O)O)NC1=O (H-GRCT[Phe(4-NO2)]SIPPICFPD-OH; disulfide 3-11) | 13 | < 1 ×10⁵ /M | 2.6 ×10¹⁰ /M | – | – | – |
